Test results: US20230391772A1, “METHODS AND COMPOSITIONS FOR TARGETED PROTEIN DEGRADATION” (Ranok Therapeutics (Hangzhou) Co. Ltd., priority 2020, published 2023)
pEC50, pIC50: −log10 of the molar value.

Legend:
HSP90a protein = biological target: T1, HSP90a protein (Homo sapiens, UniProt P07900); test: HSP90α-binding fluorescent polarization (FP) assay, BODIPY-labeled RNK04010 probe; details: FP competition with RNK04010 (BODIPY-labeled), 5 nM, 300 min at 25° C.
T1 construct: purchased BPS Bioscience 50298
Procedure, shortened: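 Test compounds (2.5-fold serial dilution, 20 μM to 5.2 nM) competed with a fluorescent tracer for N-terminal HSP90a, with fluorescence polarization as the read-out. FITC-geldanamycin tracer was used at 5 nM final with 120 min incubation at 25° C; BODIPY-labeled RNK04010 was used at 5 nM final with 300 min incubation.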

[1] = test system: NCI-H358 human non-small cell lung cancer; test: NCI-H358 CCK-8 proliferation assay; assay type: cell-based; details: NCI-H358 cells, 72 hr
Procedure: The following cancer cell lines were employed: BT-474 human breast carcinoma (ATCC, #HTB-20); MIA PaCa-2 human pancreatic carcinoma [2 copies KRAS(G12C)](ATCC, #CRL-1420); NCI-H23 human non-small cell lung cancer [1 copy KRAS(G12C)](ATCC, #CRL-5800); NCI-H358 human non-small cell lung cancer [1 copy KRAS(G12C)](ATCC, #CRL-5807); LU65A human lung carcinoma (Pharmaron, Beijing, China). Cell lines were cultured essentially according to ATCC and Pharmaron recommendations.
Cancer Cell Line Proliferation (CCK-8) Assays
3-fold serial dilutions of each test compound were prepared ranging from 20 μM to 1.02 nM.
% Inhibition=100−(D−B)/(S−B)*100%. • S: Absorbance of cells treated with DMSO • D: Absorbance of compound-treated cells • B: Absorbance of medium with DMSO without cells

| SMILES | pIC50 (HSP90a protein) | pEC50 [1] |
| --- | --- | --- |
| CCC(=O)N1CCN(c2nc(NCCC(=O)NCc3ccc(-n4c(O)nnc4-c4cc(C)c(O)cc4O)cc3)nc3c2CCN(c2cc(O)cc4ccccc24)C3)CC1 [Compound 30, N-(4-(3-(2,4-dihydroxy-5-methylphenyl)-5-hydroxy-4H-1,2,4-triazol-4-yl)benzyl)-3-((7-(3-hydroxynaphthalen-1-yl)-4-(4-propionylpiperazin-1-yl)-5,6,7,8-tetrahydropyrido[3,4-d]pyrimidin-2-yl)amino)propanamide, trifluoroacetic acid] | < 6.00 | < 6.00 |
| CC(=O)N1CCN(c2nc(NCCC(=O)N3CCC(CN4CCC(Cc5ccc(-n6c(O)nnc6-c6cc(C(C)C)c(O)cc6O)cc5)CC4)CC3)nc3c2CCN(c2cc(O)cc4ccccc24)C3)CC1 [Compound 29, 3-((4-(4-acetylpiperazin-1-yl)-7-(3-hydroxynaphthalen-1-yl)-5,6,7,8-tetrahydropyrido[3,4-d]pyrimidin-2-yl)amino)-1-(4-((4-(4-(3-(2,4-dihydroxy-5-isopropylphenyl)-5-hydroxy-4H-1,2,4-triazol-4-yl)benzyl)piperidin-1-yl)methyl)piperidin-1-yl)propan-1-one, trifluoroacetic acid] | 6.00 to 7.00 | < 6.00 |
| C=CC(=O)N1CCN(c2nc(NCCC(=O)NCc3ccc(-n4c(O)nnc4-c4cc(CC)c(O)cc4O)cc3)nc3c2CCN(c2cc(O)cc4ccccc24)C3)CC1 [Compound 40, 3-((4-(4-acryloylpiperazin-1-yl)-7-(3-hydroxynaphthalen-1-yl)-5,6,7,8-tetrahydropyrido[3,4-d]pyrimidin-2-yl)amino)-N-(4-(3-(5-ethyl-2,4-dihydroxyphenyl)-5-hydroxy-4H-1,2,4-triazol-4-yl)benzyl)propanamide, trifluoroacetic acid] | 6.00 to 7.00 | < 6.00 |
| CCC(=O)N1CCN(c2nc(NCCC(=O)NCc3ccc(-n4c(O)nnc4-c4cc(CC)c(O)cc4O)cc3)nc3c2CCN(c2cc(O)cc4ccccc24)C3)CC1 [Compound 37, N-(4-(3-(5-ethyl-2,4-dihydroxyphenyl)-5-hydroxy-4H-1,2,4-triazol-4-yl)benzyl)-3-((7-(3-hydroxynaphthalen-1-yl)-4-(4-propionylpiperazin-1-yl)-5,6,7,8-tetrahydropyrido[3,4-d]pyrimidin-2-yl)amino)propanamide, trifluoroacetic acid] | 6.00 to 7.00 | < 6.00 |
| CC(=O)N1CCN(c2nc(NCCC(=O)NCCc3ccc(-n4c(O)nnc4-c4cc(C(C)C)c(O)cc4O)cc3)nc3c2CCN(c2cc(O)cc4ccccc24)C3)CC1 [Compound 22, 3-((4-(4-acetylpiperazin-1-yl)-7-(3-hydroxynaphthalen-1-yl)-5,6,7,8-tetrahydropyrido[3,4-d]pyrimidin-2-yl)amino)-N-(4-(3-(2,4-dihydroxy-5-isopropylphenyl)-5-hydroxy-4H-1,2,4-triazol-4-yl)phenethyl)propanamide, trifluoroacetic acid] | > 7.00 | < 6.00 |
| CCC(=O)N1CCN(c2nc(NCCC(=O)N3CCN(Cc4ccc(-n5c(O)nnc5-c5cc(C(C)C)c(O)cc5O)cc4)CC3)nc3c2CCN(c2cc(O)cc4ccccc24)C3)CC1 [Compound 35, 1-(4-(4-(3-(2,4-dihydroxy-5-isopropylphenyl)-5-hydroxy-4H-1,2,4-triazol-4-yl)benzyl)piperazin-1-yl)-3-((7-(3-hydroxynaphthalen-1-yl)-4-(4-propionylpiperazin-1-yl)-5,6,7,8-tetrahydropyrido[3,4-d]pyrimidin-2-yl)amino)propan-1-one, trifluoroacetic acid] | 6.00 to 7.00 | < 6.00 |
| CCC(=O)N1CCN(c2nc(NCCC(=O)N3CCC(Cc4ccc(-n5c(O)nnc5-c5cc(C(C)C)c(O)cc5O)cc4)CC3)nc3c2CCN(c2cc(O)cc4ccccc24)C3)CC1 [Compound 38, 1-(4-(4-(3-(2,4-dihydroxy-5-isopropylphenyl)-5-hydroxy-4H-1,2,4-triazol-4-yl)benzyl)piperidin-1-yl)-3-((7-(3-hydroxynaphthalen-1-yl)-4-(4-propionylpiperazin-1-yl)-5,6,7,8-tetrahydropyrido[3,4-d]pyrimidin-2-yl)amino)propan-1-one, trifluoroacetic acid] | 6.00 to 7.00 | < 6.00 |

More lines, now with the values ahead:

| pIC50 (HSP90a protein) | pEC50 [1] | SMILES |
| --- | --- | --- |
| 6.00 to 7.00 | < 6.00 | C=CC(=O)N1CCN(c2nc(NCCC(=O)NCCOCCOCCOc3ccc(-n4c(O)nnc4-c4cc(C(C)C)c(O)cc4O)cc3)nc3c2CCN(c2cccc4cccc(Cl)c24)C3)C[C@@H]1CC#N [Compound 93, (S)-3-((4-(4-acryloyl-3-(cyanomethyl)piperazin-1-yl)-7-(8-chloronaphthalen-1-yl)-5,6,7,8-tetrahydropyrido[3,4-d]pyrimidin-2-yl)amino)-N-(2-(2-(2-(4-(3-(2,4-dihydroxy-5-isopropylphenyl)-5-hydroxy-4H-1,2,4-triazol-4-yl)phenoxy)ethoxy)ethoxy)ethyl)propanamide, trifluoroacetic acid] |
| < 6.00 | < 6.00 | C=C(F)C(=O)N1CCN(c2nc(OC[C@@H]3CCCN3C(=O)COc3ccc(Nc4cc(-n5nc(C(F)(F)F)c6c5CC(C)(C)CC6=O)ccc4C(N)=O)cc3)nc3c2CCN(c2cccc4cccc(Cl)c24)C3)C[C@@H]1CC#N [Compound 164, 2-((4-(2-((S)-2-(((7-(8-chloronaphthalen-1-yl)-4-((S)-3-(cyanomethyl)-4-(2-fluoroacryloyl)piperazin-1-yl)-5,6,7,8-tetrahydropyrido[3,4-d]pyrimidin-2-yl)oxy)methyl)pyrrolidin-1-yl)-2-oxoethoxy)phenyl)amino)-4-(6,6-dimethyl-4-oxo-3-(trifluoromethyl)-4,5,6,7-tetrahydro-1H-indazol-1-yl)benzamide] |
| 6.00 to 7.00 | < 6.00 | CCCc1cc(-c2nnc(O)n2-c2ccc(CN3CCN(CC4CCN(C(=O)CCNc5nc6c(c(N7CCN(C(=O)CC)CC7)n5)CCN(c5cc(O)cc7ccccc57)C6)CC4)CC3)cc2)c(O)cc1O [Compound 52, 1-(4-((4-(4-(3-(2,4-dihydroxy-5-propylphenyl)-5-hydroxy-4H-1,2,4-triazol-4-yl)benzyl)piperazin-1-yl)methyl)piperidin-1-yl)-3-((7-(3-hydroxynaphthalen-1-yl)-4-(4-propionylpiperazin-1-yl)-5,6,7,8-tetrahydropyrido[3,4-d]pyrimidin-2-yl)amino)propan-1-one] |
| < 6.00 | < 6.00 | C=CC(=O)N1CCN(c2nc(NCCC(=O)N3CCN(Cc4ccc5c(c4)CN(C(=O)c4cc(CC)c(O)cc4O)C5)CC3)nc3c2CCN(c2cc(O)cc4ccccc24)C3)CC1 [Compound 68, 1-(4-(2-((3-(4-((2-(5-ethyl-2,4-dihydroxybenzoyl)isoindolin-5-yl)methyl)piperazin-1-yl)-3-oxopropyl)amino)-7-(3-hydroxynaphthalen-1-yl)-5,6,7,8-tetrahydropyrido[3,4-d]pyrimidin-4-yl)piperazin-1-yl)prop-2-en-1-one, trifluoroacetic acid] |
| 6.00 to 7.00 | 6.00 to 7.00 | CCc1cc(-c2nnc(C(=O)NCC(F)(F)F)n2-c2ccc(CN(C)Cc3ccc(CC4CCN(C(=O)CCNc5nc6c(c(N7CCN(C(C)=O)CC7)n5)CCN(c5cc(O)cc7ccccc57)C6)CC4)cc3)cc2)c(O)cc1O [Compound 113, 4-(4-(((4-((1-(3-((4-(4-acetylpiperazin-1-yl)-7-(3-hydroxynaphthalen-1-yl)-5,6,7,8-tetrahydropyrido[3,4-d]pyrimidin-2-yl)amino)propanoyl)piperidin-4-yl)methyl)benzyl)(methyl)amino)methyl)phenyl)-5-(5-ethyl-2,4-dihydroxyphenyl)-N-(2,2,2-trifluoroethyl)-4H-1,2,4-triazole-3-carboxamide, trifluoroacetic acid] |
| < 6.00 | < 6.00 | C=CC(=O)N1CCN(c2nc(NCCC(=O)NCc3ccc(-n4c(O)nnc4-c4cc(CC)c(O)cc4O)cc3F)nc3c2CCN(c2cccc4cccc(Cl)c24)C3)C[C@H]1CC#N [Compound 83, (R)-3-((4-(4-acryloyl-3-(cyanomethyl)piperazin-1-yl)-7-(8-chloronaphthalen-1-yl)-5,6,7,8-tetrahydropyrido[3,4-d]pyrimidin-2-yl)amino)-N-(4-(3-(5-ethyl-2,4-dihydroxyphenyl)-5-hydroxy-4H-1,2,4-triazol-4-yl)-2-fluorobenzyl)propanamide, trifluoroacetic acid] |
| < 6.00 | < 6.00 | C=CC(=O)N1CCN(c2nc(NCCC(=O)NCc3ccc(-n4c(O)nnc4-c4ccc(O)cc4O)cc3)nc3c2CCN(c2cccc4ccccc24)C3)C[C@H]1CC#N [Compound 81] |
| < 6.00 | < 6.00 | CC(=O)N1CCN(c2nc(NCCC(=O)NCc3ccc(-n4c(O)nnc4-c4cc(C)c(O)cc4O)cc3)nc3c2CCN(c2cc(O)cc4ccccc24)C3)CC1 [Compound 44, 3-((4-(4-acetylpiperazin-1-yl)-7-(3-hydroxynaphthalen-1-yl)-5,6,7,8-tetrahydropyrido[3,4-d]pyrimidin-2-yl)amino)-N-(4-(3-(2,4-dihydroxy-5-methylphenyl)-5-hydroxy-4H-1,2,4-triazol-4-yl)benzyl)propanamide, trifluoroacetic acid] |
